Source: patent publication US6610677B2, “Pyrazole compounds useful as protein kinase inhibitors” (Vertex Pharmaceuticals Incorporated, priority 2000, dated 2003)

The compounds below were run against T1, GSK-3β (AA 1-420) (Homo sapiens, UniProt P49841) (assay: Ki determination for the inhibition of GSK-3 (coupled enzyme system)). Conditions: 20 μM ATP, 300 μM peptide, 20 nM GSK-3β, 30° C.
T1 construct: GSK-3β (AA 1-420)
Format: biochemical
Method: Compounds were screened for their ability to inhibit GSK-3β (AA 1-420) activity using a standard coupled enzyme system (Fox et al. (1998) Protein Sci. 7, 2249). Reactions were carried out in a solution containing 100 mM HEPES (pH 7.5), 10 mM MgCl2, 25 mM NaCl, 300 μM NADH, 1 mM DTT and 1.5% DMSO. Final substrate concentrations in the assay were 20 μM ATP (Sigma Chemicals, St Louis, Mo.) and 300 μM peptide (HSSPHQS(PO3H2)EDEEE, American Peptide, Sunnyvale, Calif.). Reactions were carried out at 30° C. and 20 nM GSK-3β. Final concentrations of the components of the coupled enzyme system were 2.5 mM phosphoenolpyruvate, 300 μM NADH, 30 μg/ml pyruvate kinase and 10 μg/ml lactate dehydrogenase.
An assay stock buffer solution was prepared containing all of the reagents listed above with the exception of ATP and the test compound of interest. The assay stock buffer solution (175 μl) was incubated in a 96 well plate with 5 μl of the test compound of interest at final concentrations spanning 0.002 μM to 30 μM at 30° C. for 10 min. Typically, a 12 point titration was conducted by preparing serial dilutions (from 10 mM compound stocks) with DMSO of the test compounds in daughter plates. The reaction was initiated by the addition of 20 μl of ATP (final concentration 20 μM). Rates of reaction were obtained using a Molecular Devices Spectramax plate reader (Sunnyvale, Calif.) over 10 min at 30° C. The Ki values were determined from the rate data as a function of inhibitor concentration.

T1 sequence (P49841 whole entry, the tested form may be a part): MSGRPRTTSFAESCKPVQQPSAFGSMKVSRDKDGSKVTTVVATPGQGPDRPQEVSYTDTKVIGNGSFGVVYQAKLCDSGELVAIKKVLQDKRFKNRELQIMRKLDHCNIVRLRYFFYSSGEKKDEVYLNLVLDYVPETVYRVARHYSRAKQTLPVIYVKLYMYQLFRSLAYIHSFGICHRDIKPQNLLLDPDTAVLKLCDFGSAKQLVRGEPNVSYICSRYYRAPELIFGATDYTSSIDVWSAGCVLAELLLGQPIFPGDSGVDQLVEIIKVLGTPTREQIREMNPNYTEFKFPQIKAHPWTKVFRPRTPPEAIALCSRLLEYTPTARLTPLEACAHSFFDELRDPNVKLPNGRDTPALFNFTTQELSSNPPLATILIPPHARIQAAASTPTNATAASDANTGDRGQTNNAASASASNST

| Ki [nM] | SMILES |
| --- | --- |
| 100 to 1000 | Cc1nc(-c2ccc(Cl)cc2Cl)nc(Nc2n[nH]c3ccccc23)c1C [II-32, [2-(2,4-Dichlorophenyl)-5,6-dimethyl-pyrimidin-4-yl]-(1H-indazol-3-yl)-amine] |
| < 100 | Fc1ccc2[nH]nc(Nc3nc(-c4ccccc4C(F)(F)F)nc4c3CN(Cc3ccccc3)CC4)c2c1 [II-12, (6-Benzyl-2-(2-trifluoromethyl-phenyl)-5,6,7,8-tetrahydro-pyrido[4,3-d]pyrimidin-4-yl)-(5-fluoro-1H-indazol-3-yl)-amine] |
| < 100 | Clc1cccc(Cl)c1-c1nc(Nc2n[nH]c3ccccc23)c2ccccc2n1 [II-66, [2-(2,6-Dichloro-phenyl)-guinazolin-4-yl]-(1H-indazol-3-yl)-amine] |
| < 100 | Fc1cccc2c(Nc3nc(-c4ccccc4Cl)nc4c3CCC4)n[nH]c12 [II-117, [2-(2-Chloro-phenyl)-6,7-dihydro-5H-cyclopentapyrimidin-4-yl]-(7-fluoro-1H-indazol-3-yl)-amine] |
| < 100 | Fc1cc(F)c2[nH]nc(Nc3nc(-c4ccccc4C(F)(F)F)nc4c3CCCCCC4)c2c1 [II-121, (5,7-Difluoro-1H-indazol-3-yl)-[2-(2-trifluoromethyl-phenyl)-5,6,7,8,9,10-hexahydro-cyclooctapyrimidin-4-yl]-amine] |
| 1000 to 20000 | NC(=O)c1c[nH]nc1Nc1nc(-c2ccccc2C(F)(F)F)nc2ccccc12 [II-52, (4-Carbamoyl-2H-pyrazol-3-yl)-[2-(2-trifluoromethylphenyl)-quinazolin-4-yl]-amine] |
| 1000 to 20000 | FC(F)(F)c1ccccc1-c1nc(Nc2n[nH]cc2-c2cccs2)c2ccccc2n1 [II-47, [4-(Thiophen-2-yl)-2H-pyrazol-3-yl]-[2-(2-trifluoromethylphenyl)-quinazolin-4-yl]-amine] |
| < 100 | Fc1ccc2c(Nc3nc(-c4ccccc4C(F)(F)F)nc4ccccc34)n[nH]c2c1 [II-124, (6-Fluoro-1H-indazol-3-yl)-[2-(2-trifluoromethyl-phenyl)-quinazolin-4-yl]-amine] |
| < 100 | Fc1ccc2[nH]nc(Nc3nc(-c4ccccc4C(F)(F)F)nc4c3CCCC4)c2c1 [II-8, (5-Fluoro-1H-indazol-3-yl)-[2-(2-trifluoromethyl-phenyl)-5,6,7,8-tetrahydroquinazolin-4-yl]-amine] |
| < 100 | Cc1nc(-c2ccccc2C(F)(F)F)nc(Nc2n[nH]c3c(F)cc(F)cc23)c1C [II-28, (5,7-Difluoro-1H-indazol-3-yl)-[5,6-Dimethyl-2-(2-trifluoromethyl-phenyl)-pyrimidin-4-yl]-amine] |
| 1000 to 20000 | c1ccc2c(Nc3[nH]nc4ccccc34)nc(N3CCCCC3)nc2c1 [III-143, (1H-Indazol-3-yl)-(2-piperidin-1-yl-quinazolin-4-yl)-amine] |
| 1000 to 20000 | FC(F)(F)c1ccccc1-c1nc(Nc2n[nH]c3cccc(-n4cccc4)c23)c2ccccc2n1 [II-72, (4-Pyrrol-1-yl-1H-indazol-3-yl)-[2-(2-trifluoromethyl-phenyl)-quinazolin-4-yl]-amine] |
| < 100 | COC(=O)c1ccc2[nH]nc(Nc3nc(-c4ccccc4C(F)(F)F)nc4ccccc34)c2c1 [II-125, 3-[2-(2-Trifluoromethyl-phenyl)-quinazolin-4-ylamino]-1H-indazole-5-carboxylic acid methyl ester] |
| 1000 to 20000 | FC(F)(F)c1ccccc1-c1nc(Nc2n[nH]cc2-c2ccccc2)c2ccccc2n1 [II-48, (4-Phenyl-2H-pyrazol-3-yl)-[2-(2-trifluoromethylphenyl)-quinazolin-4-yl]-amine] |
| < 100 | Fc1ccc2[nH]nc(Nc3nc(-c4ccccc4C(F)(F)F)nc4c3CCCCCC4)c2c1 [II-111, (5-Fluoro-1H-indazol-3-yl)-[2-(2-trifluoromethyl-phenyl)-5,6,7,8,9,10-hexahydro-cyclooctapyrimidin-4-yl]-amine] |
| < 100 | Fc1cccc2c(Nc3nc(-c4ccccc4C(F)(F)F)nc4c3CCCC4)n[nH]c12 [II-7, (7-Fluoro-1H-indazol-3-yl)-[2-(2-trifluoromethyl-phenyl)-5,6,7,8-tetrahydroquinazolin-4-yl]-amine] |
| 100 to 1000 | Cc1nc(Nc2nc(-c3ccccc3C(F)(F)F)nc3ccccc23)n[nH]1 [IX-38, (5-Methyl-2H-[1,2,4]triazol-3-yl)-[2-(2-trifluoromethylphenyl)-quinazolin-4-yl]-amine] |
| 1000 to 20000 | FC(F)(F)c1ccccc1-c1nc(Nc2n[nH]c(-c3ccccc3)c2-c2ccccc2)c2ccccc2n1 [II-51, (4,5-Diphenyl-2H-pyrazol-3-yl)-[2-(2-trifluoromethylphenyl)-quinazolin-4-yl]-amine] |
| < 100 | FC(F)(F)c1ccccc1-c1nc2c(c(Nc3n[nH]c4ccccc34)n1)CCCC2 [II-17, (1H-indazol-3-yl)-[2-(2-trifluoromethyl-phenyl)-5,6,7,8-tetrahydroquinazolin-4-yl]-amine] |
| 100 to 1000 | COc1ccc(-n2nc3c(Nc4nc(-c5ccccc5)nc5ccccc45)n[nH]c3cc2=O)cc1 [III-136, [5-(4-Methoxy-phenyl)-6-oxo-5,6-dihydro-1H-pyrazolo[4,3-c]pyridazin-3-yl]-(2-phenyl-quinazolin-4-yl)-amine] |
| 1000 to 20000 | FC(F)(F)c1ccccc1-c1nc(Nc2n[nH]c3c(C(F)(F)F)cccc23)c2ccccc2n1 [II-68, (7-Trifluoromethyl-1H-indazol-3-yl)-[2-(2-trifluoromethyl-phenyl)-quinazolin-4-yl]-amine] |
| 1000 to 20000 | O=c1cc2[nH]nc(Nc3nc(-c4ccccc4)nc4ccccc34)c2nn1-c1ccc(Cl)cc1Cl [III-137, [5-(2,4-Dichloro-phenyl)-6-oxo-5,6-dihydro-1H-pyrazolo[4,3-c]pyridazin-3-yl]-(2-phenyl-quinazolin-4-yl)-amine] |
| < 100 | Fc1cccc2c(Nc3nc(-c4ccccc4Cl)nc4c3CCCCC4)n[nH]c12 [II-4, [2-(2-Chloro-phenyl)-6,7,8,9-tetrahydro-5H-cycloheptapyrimidin-4-yl]-(7-fluoro-1H-indazol-3-yl)-amine] |
| 100 to 1000 | Cc1nccn1-c1nc(Nc2[nH]nc3ccccc23)c2ccccc2n1 [III-142] |
| 100 to 1000 | Cc1cc(Nc2nc(-c3ccncc3)nc3ccc(Cl)cc23)[nH]n1 [III-29, (6-Chloro-2-pyridin-4-yl-quinazolin-4-yl)-(5-methyl-2H-pyrazol-3-yl)-amine] |
| 1000 to 20000 | FC(F)(F)c1ccccc1-c1nc(Nc2n[nH]c3cccnc23)c2ccccc2n1 [II-98, (1H-Pyrazolo[4,3-b]pyridin-3-yl)-[2-(2-trifluoromethyl-phenyl)-quinazolin-4-yl]-amine] |
| 100 to 1000 | CC(C)(C)c1cc(Nc2nc(-c3ccccc3C(F)(F)F)nc3ccccc23)n[nH]1 [II-49, (5-tert-Butyl-2H-pyrazol-3-yl)-[2-(2-trifluoromethyl-phenyl)-quinazolin-4-yl]-amine] |
| < 100 | Clc1ccccc1-c1nc(Nc2n[nH]c3ccccc23)c2cccnc2n1 [II-110, [2-(2-Chloro-phenyl)-pyrido[2,3-d]pyrimidin-4-yl]-(1H-indazol-3-yl)-amine] |
| 1000 to 20000 | O=C(c1cc(Nc2nc(N3CCCCC3)nc3ccccc23)[nH]n1)N1CCCCC1 [III-123, [5-(Piperidine-1-carbonyl)-2H-pyrazol-3-yl]-[2-(piperidine-1-yl)-quinazolin-4-yl]-amine] |
| < 100 | FC(F)(F)c1ccccc1-c1nc(Nc2n[nH]c3ccccc23)c2cccnc2n1 [II-108, (1H-Indazol-3-yl)-[2-(2-trifluoromethyl-phenyl)-pyrido[2,3-d]pyrimidin-4-yl]-amine] |
